Test results published in patent US10441578B2, “Altering expression level of glutathione S-transferase genes by treating a human subject with a nitroxide” (priority 2018, dated 2019).

Legend:
Format in all cases: in vivo
[1] = system: Gstm3, Gstm6, Gsta3, Gstt1, Gsta4, Gstm1, Gstm4, Gstt2, Gstp1, or Gstk1; assay: Treatment of a human subject with a nitroxide antioxidant, serum level of GST; details: 1500 mg per day for 180 days
Protocol: (§1) A 70-kilogram human subject over the age of 65 is identified for decreased expression level of Gstm3, Gstm6, Gsta3, Gstt1, Gsta4, Gstm1, Gstm4, Gstt2, Gstp1, or Gstk1. The human subject is administered a dose of 1500 mg of a nitroxide antioxidant (e.g., Tempol) per day for 180 days. This may be administered in a single dose, or may be administered as a number of smaller doses over a 24-hour period: for example, three 500-mg doses at eight-hour intervals. Following treatment, the serum level of Gstm3, Gstm6, Gsta3, Gstt1, Gsta4, Gstm1, Gstm4, Gstt2, Gstp1, or Gstk1, is increased.
as §1, with “65 and having a cardiovascular disease” for “65”
(§2) A 70-kilogram human subject is identified for decreased expression level of Gstm3, Gstm6, Gsta3, Gstt1, Gsta4, Gstm1, Gstm4, Gstt2, Gstp1, or Gstk1. The human subject is administered a dose of 1500 mg of a nitroxide antioxidant (e.g., Tempol) per day for 180 days. This may be administered in a single dose, or may be administered as a number of smaller doses over a 24-hour period: for example, three 500-mg doses at eight-hour intervals. Following treatment, the serum level of Gstm3, Gstm6, Gsta3, Gstt1, Gsta4, Gstm1, Gstm4, Gstt2, Gstp1, or Gstk1, is increased.
as §2, with “Gstk1 that is associated with a disease (e.g., caused by or causing a disease).” for “Gstk1.”
as §2, with “human subject at risk of developing a cancer (e.g., colorectal cancer) or having a cancer is identified” for “human subject is identified”
as §2, with “human subject at risk of developing or having an autoimmune disease (e.g., rheumatoid arthritis) is identified” for “human subject is identified”
A 70-kilogram human subject of person at risk of developing, or having, a condition due to aging is identified. The human subject is administered a dose of 1500 mg of a nitroxide antioxidant (e.g., Tempol) per day for 180 days. […]

[2] = system: Glutathione S-transferase, alpha 4 (Gsta4); assay: Microarray gene expression in white adipose tissue of Tempol-fed mice
Protocol: (§3) To assess the effects of Tempol on gene expression, Tempol was administered to experimental mice at a dose of 5 mg/g of food from 14 months to 31 months after birth. Mice receiving the same food without the addition of Tempol were used as a negative control. At the age of 31 months, the experimental animals were sacrificed and the hearts were surgically removed. The expression of a broad spectrum of genes in white adipose tissue tissue was assessed using chip-based microarray technology. Such chips are well known in the art and are widely used to assess gene expression.

[3] = system: Glutathione S-transferase kappa1 (Gstk1); assay: as above
Protocol: as §3

[4] = system: Glutathione S-transferase, theta 2 (Gstt2); assay: as above
Protocol: as §3

[5] = system: Glutathione S-transferase, mu 4 (Gstm4); assay: as above
Protocol: as §3

[6] = system: Glutathione S-transferase, mu 6 (Gstm6); assay: as above
Protocol: as §3

[7] = system: Glutathione S-transferase, alpha 3 (Gsta3); assay: as above
Protocol: as §3

[8] = system: Glutathione S-transferase, mu 1 (Gstm1); assay: as above
Protocol: as §3

[9] = system: Glutathione S-transferase, theta 1 (Gstt1); assay: as above
Protocol: as §3

[10] = system: Glutathione S-transferase, pi 1 (Gstp1); assay: as above
Protocol: as §3

[11] = system: Glutathione S-transferase, mu 3 (Gstm3); assay: as above
Protocol: as §3

[12] = Tempol-treated vs control mice, microarray
[13] = Tempol-treated vs control mice, P-value 0.003
[14] = Tempol-treated vs control mice, P-value 0.001

Question: What does the source list for CC1(C)CC(O)CC(C)(C)N1[O] [Tempol, 4-hydroxy-2,2,6,6-tetramethylpiperidine-1-oxyl]?
Answer: Serum level of GST following treatment ([1]; Example 2: human subject over the age of 65 with decreased expression): increased; Serum level of GST following treatment ([1]; Example 3: human subject over the age of 65 having a cardiovascular disease): increased; Serum level of GST following treatment ([1]; Example 4: human subject with decreased expression level): increased; Serum level of GST following treatment ([1]; Example 5: decreased expression associated with a disease): increased; Serum level of GST following treatment ([1]; Example 6: human subject at risk of developing or having a cancer): increased; Serum level of GST following treatment ([1]; Example 7: human subject at risk of developing or having an autoimmune disease): increased; Serum level of GST following treatment ([1]; Example 8: human subject, condition due to aging): increased; Serum level of GST following treatment ([1]; Example 9: human subject at risk of developing or having a neurodegenerative disease): increased; Serum level of GST following treatment ([1]; Example 10: human subject having an infection): increased; Expression, Tempol-treated mice ([2]; Tempol 5 mg/g of food from 14 to 31 months after birth, microarray, control mice 195): 284; Fold change ([2]; Tempol-treated vs control mice, P-value 0.006): 1.45; Change in expression (in words) [2, 12]: statistically significant increase in expression; Expression, Tempol-treated mice ([3]; Tempol 5 mg/g of food from 14 to 31 months after birth, microarray, control mice 1140): 1325; Fold change ([3]; Tempol-treated vs control mice, P-value 0.015): 1.16; Change in expression (in words) [3, 12]: statistically significant increase in expression; Expression, Tempol-treated mice ([4]; Tempol 5 mg/g of food from 14 to 31 months after birth, microarray, control mice 446): 546; Fold change ([4]; Tempol-treated vs control mice, P-value 0.035): 1.22; Change in expression (in words) [4, 12]: statistically significant increase in expression; Expression, Tempol-treated mice ([5]; Tempol 5 mg/g of food from 14 to 31 months after birth, microarray, control mice 416): 533; Fold change [5, 13]: 1.28; Change in expression (in words) [5, 12]: statistically significant increase in expression; Expression, Tempol-treated mice ([6]; Tempol 5 mg/g of food from 14 to 31 months after birth, microarray, control mice 147): 265; Fold change ([6]; Tempol-treated vs control mice, P-value 0.034): 1.8; Change in expression (in words) [6, 12]: statistically significant increase in expression; Expression, Tempol-treated mice ([7]; Tempol 5 mg/g of food from 14 to 31 months after birth, microarray, control mice 668): 1183; Fold change ([7]; Tempol-treated vs control mice, P-value 0.004): 1.77; Change in expression (in words) [7, 12]: statistically significant increase in expression; Expression, Tempol-treated mice ([8]; Tempol 5 mg/g of food from 14 to 31 months after birth, microarray, control mice 6291): 8548; Fold change [8, 13]: 1.36; Change in expression (in words) [8, 12]: statistically significant increase in expression; Expression, Tempol-treated mice ([9]; Tempol 5 mg/g of food from 14 to 31 months after birth, microarray, control mice 1017): 1619; Fold change [9, 14]: 1.59; Change in expression (in words) [9, 12]: statistically significant increase in expression; Expression, Tempol-treated mice ([10]; Tempol 5 mg/g of food from 14 to 31 months after birth, microarray, control mice 5711): 6812; Fold change ([10]; Tempol-treated vs control mice, P-value 0.005): 1.19; Change in expression (in words) [10, 12]: statistically significant increase in expression; Expression, Tempol-treated mice ([11]; Tempol 5 mg/g of food from 14 to 31 months after birth, microarray, control mice 10): 74; Fold change [11, 14]: 7.52; Change in expression (in words) [11, 12]: statistically significant increase in expression
